Reference: patent US9018438B2, “Screening method for anticancer drugs” (Kyoto University, priority 2010, dated 2015)
Counter-ions that a name gives are not always drawn. Like-named read-outs stand apart in the source and are kept apart here.

Key:
Reck gene promoter [1] = assay: SEAP assay in YM3 cells (Reck gene promoter-reporter system); format: cell-based, mouse
Experimental: A 4.1-kb upstream region of a mouse Reck gene (Gene ID: 53614, Chromosome 4—NC—000070.5 43884251-43888453) was inserted into a pSEAP2-Basic vector (Clontech) to give a pSEAP-RP4.1 plasmid. […] Biochem Biophys Res Commun 1999; 264: 668-675.). […] TF323-C3 cells can be distributed from one of the inventors Makoto Noda.
YM3 cells were seeded onto 96-well plates at 1×10^4 cells in 100 μl per well and incubation was performed for 5 hours to allow the cells to settle. A compound solution (500 μM, 1 μl) was added to the medium. The employed test compounds were those in the chemical library Prestwick Chemical Library (Prestwick Chemical, Illkirch, France), which is composed of 880 structurally diverse known bioactive compounds, dissolved in nano-pure grade dimethyl sulfoxide (DMSO; Wako). […] A vehicle (DMSO, 1 μl) alone as a negative control and hypothemycin (HPM, 1 mg/ml) as a positive control were added to two wells per plate. Each sample was tested on two different plates (duplicate samples).
After incubation for 48 hours, a portion (10 μl) of the culture supernatant was sampled, incubated at 65° C. (heat treatment) for 30 minutes, and then subjected to the SEAP assay using Great EscAPe™ SEAP Chemiluminescence Detection Kit (Takara Bio). The remaining medium and the cells were subjected to the cell-counting assay using SF reagent. That is, SF reagent (Nacalai) (10 μl per well) was added to the medium, the plates were incubated for 3 hours in a CO2 incubator, and the absorbance at 450 nm (A450) was measured to obtain relative cell numbers. For the SEAP activity data, “SEAP measured value/A450 value” was defined as “SEAP activity per cell”, and the value obtained by dividing “SEAP activity per cell” of each compound by “SEAP activity per cell” of the negative control was defined as “relative SEAP activity”. The mean “relative SEAP activity” of the duplicate samples and the standard error thereof were determined. For the cell number data, the value obtained by dividing the SF measured value of each compound by the SF measured value of the negative control was defined as “relative cell number”, and the mean value of the duplicate samples and the standard error thereof were determined. Samples with a large standard error were tested again. In the experiment, duplicate samples were prepared each in a regular liquid medium and in a liquid medium containing Dox (2 μg/ml), and four mean values (the relative cell number and the relative SEAP activity in the Ras-ON state and the relative cell number and the relative SEAP activity in the Ras-OFF state) were obtained (see FIG. 3).

RM72 cells = format: in vivo; conditions: mouse, in vivo
Experimental: RM72 cells (3×10^6 cells) suspended in 0.1 ml of PBS were subcutaneously injected into the right posterior flank of Balb/c nude mice (6 weeks old, male, Charles River). […]. After 14-day treatment, the mice were anesthetized and their bioluminescence was recorded by the method described below. After the whole-body recording of the bioluminescence, the lung was resected, washed with PBS (−), and subjected to bioluminescence recording. The tumor size (length×width×height) was measured once a week. Statistical significance was assessed by Student's t-test.
Mice under anesthesia were intraperitoneally injected with 75 mg/kg of d-luciferin dissolved in PBS (−). Bioluminescence images were acquired with IVIS ImagingSystem (Xenogen) at 5 minutes after the injection (Wang S, El-Deiry W S. Requirement of p53 targets in chemosensitization of colonic carcinoma to death ligand therapy. Proc Natl Acad Sci USA 2003; 100: 15095-15100; Minn A J, Kang Y, Serganova I, Gupta G P, Giri D D, Doubrovin M, Ponomarev V, Gerald W L, Blasberg R, Massague J. Distinct organ-specific metastatic potential of individual breast cancer cells and primary tumors. J Clin Invest 2005; 115: 44-55). The photons emitted from the whole bodies or the isolated organs were collected for a period of 60 seconds and integrated. The images were analyzed using Living Image software (Xenogen).
The anti-tumorigenic and anti-metastatic activities of Pyt, Hr, Gra and Lyc were investigated with the same protocol as in Example 9. The experiment was conducted in two batches: Experiment 1 for three groups of a Pyt group, a Hr group and a vehicle group and Experiment 2 for three groups of a Gra group, a Lyc group and a vehicle group. The doses of the test compounds were set at two different quantities considered to be appropriate based on literature (see Tables 3 and 4).

Reck gene promoter [2] = assay: SEAP assay in YM3 cells (Reck gene promoter-reporter system); format: cell-based, mouse; conditions: determined by dose-response assays (0.0617, 0.185, 0.556, 1.67, 5.00 μM) using YM3 cells
[3] = in the presence of Dox (HRAS12V-off)
[4] = relative SEAP activity at optimal conc., YM3 cells, regular medium (Ras-ON)

Molecule | Activity in Dox (Reck gene promoter [1]; [3]) | Induction (fold) (Reck gene promoter [1]; [4]) | further results
CCCSc1ccc2nc(NC(=O)OC)[nH]c2c1 [Albendazole] |  |  | Activity in Dox (Reck gene promoter [1]): ± (key: +: more than 1.9-fold; ±: between 1.9 and 1.5-fold; −: less than 1.5-fold); Induction (fold) (Reck gene promoter [1]): 2.89 fold
CC[C@@]1(O)C(=O)OCc2c1cc1n(c2=O)Cc2cc3ccccc3nc2-1 [Camptothecine (S, +)] | + (more than 1.9-fold) | 7.71 | Optimal conc. (Reck gene promoter [1]): 5.00 µM
CC[C@H]1CN2CCc3cc(OC)c(OC)cc3[C@@H]2C[C@@H]1C[C@H]1NCCc2cc(O)c(OC)cc21.Cl.Cl.O.O.O.O.O.O.O [Cephaeline dihydrochloride heptahydrate] | + (more than 1.9-fold) | 5.61 | Optimal conc. (Reck gene promoter [1]): 5.00 µM
C[C@@H]1C[C@@H]([C@H](O)CC2CC(=O)NC(=O)C2)C(=O)[C@@H](C)C1 [Cycloheximide] | ± (between 1.9 and 1.5-fold) | 2.29 | 
COc1cccc2c1C(=O)c1c(O)c3c(c(O)c1C2=O)C[C@@](O)(C(C)=O)C[C@@H]3O[C@H]1C[C@H](N)[C@H](O)[C@H](C)O1 [Daunorubicin hydrochloride] | + (more than 1.9-fold) | 6.22 | 
CN(C)[C@@H]1C(O)=C(C(N)=O)C(=O)[C@@]2(O)C(O)=C3C(=O)c4c(O)ccc(Cl)c4[C@@H](O)[C@H]3C[C@@H]12 [Demeclocycline hydrochloride] | − (less than 1.5-fold) | 2.57 | 
CCOC(=O)NC1=C(N2CC2)C(=O)C(NC(=O)OCC)=C(N2CC2)C1=O [Diaziquone] | ± (between 1.9 and 1.5-fold) | 3.54 | 
CCN(CC)C(=S)SSC(=S)N(CC)CC [Disulfiram] | + (more than 1.9-fold) | 18.0 | 
C[C@H]1c2cccc(O)c2C(=O)C2=C(O)[C@]3(O)C(=O)C(C(N)=O)=C(O)[C@@H](N(C)C)[C@@H]3[C@@H](O)[C@@H]21 [Doxycycline hydrochloride] | − (less than 1.5-fold) | 1.96 | 
CC[C@H]1CN2CCc3cc(OC)c(OC)cc3[C@@H]2C[C@@H]1C[C@H]1NCCc2cc(OC)c(OC)cc21 [Emetine dihydrochloride] | − (less than 1.5-fold) | 3.79 | 
COc1cc([C@@H]2c3cc4c(cc3[C@@H](O[C@@H]3O[C@@H]5CO[C@@H](C)O[C@H]5[C@H](O)[C@H]3O)[C@H]3COC(=O)[C@H]23)OCO4)cc(OC)c1O [Etoposide] | + (more than 1.9-fold) | 1.99 | 
COc1cc(O)c2c(c1)[C@H]1O[C@@H]1C[C@H](O)[C@H](O)C(=O)/C=C\C[C@H](C)OC2=O [HPM, hypothemycin] |  |  | SEAP up-regulation in YM3 cells (Reck gene promoter [1]; 1 μg/ml): up-regulated; up-regulation of SEAP activity (Reck gene promoter [1]; positive control, typical): about twofold
Clc1cc(Cl)c(OCC#CI)cc1Cl [Haloprogin] | + (more than 1.9-fold) | 3.48 | 
CCN(CC)CCNc1ccc(CO)c2sc3ccccc3c(=O)c12 [Hycanthone] | + (more than 1.9-fold) | 2.02 | 
CC1=CC(=O)c2ccccc2C1=O [Menadione] | + (more than 1.9-fold) | 3.21 | 
CN(Cc1cnc2nc(N)nc(N)c2n1)c1ccc(C(=O)N[C@@H](CCC(=O)O)C(=O)O)cc1 [Methotrexate] | ± (between 1.9 and 1.5-fold) | 3.42 | 
CN(C)c1ccc(O)c2c1C[C@H]1C[C@H]3[C@H](N(C)C)C(O)=C(C(N)=O)C(=O)[C@@]3(O)C(O)=C1C2=O [Minocycline hydrochloride] | − (less than 1.5-fold) | 2.54 | 
O=C1c2c(O)ccc(O)c2C(=O)c2c(NCCNCCO)ccc(NCCNCCO)c21 [Mitoxantrone dihydrochloride] | + (more than 1.9-fold) | 3.60 | 
CC(=O)O[C@H]1C(=O)[C@@]2(C)[C@H]([C@H](OC(=O)c3ccccc3)[C@]3(O)C[C@H](OC(=O)[C@H](O)[C@@H](NC(=O)c4ccccc4)c4ccccc4)C(C)=C1C3(C)C)[C@]1(OC(C)=O)CO[C@@H]1C[C@@H]2O [Paclitaxel] | ± (between 1.9 and 1.5-fold) | 3.32 | 
C1CCC(C(CC2CCCCN2)C2CCCCC2)CC1 (stereo not drawn) [Perhexiline maleate] | + (more than 1.9-fold) | 2.28 | 
COc1cc(/C=C/C(=O)N2CCC=CC2=O)cc(OC)c1OC [Piperlongumine] | − (less than 1.5-fold) | 2.06 | Optimal conc. (Reck gene promoter [1]): 5.00 µM
COc1cc([C@@H]2c3cc4c(cc3[C@H](O)[C@H]3COC(=O)[C@H]23)OCO4)cc(OC)c1OC [Podophyllotoxin] | ± (between 1.9 and 1.5-fold) | 2.48 | 
CCc1nc(N)nc(N)c1-c1ccc(Cl)cc1 [Pyrimethamine] | ± (between 1.9 and 1.5-fold) | 2.33 | 
[O-][n+]1ccccc1S [Pyrithione sodium salt] |  |  | Activity in Dox (Reck gene promoter [1]): + (key: +: more than 1.9-fold; ±: between 1.9 and 1.5-fold; −: less than 1.5-fold); Induction (fold) (Reck gene promoter [1]): 17.5 fold; Lung metastasis Mean (RM72 cells; 15 mg/kg/day): 11.6; Tumor Mean (RM72 cells; 15 mg/kg/day): 52.2; Lung metastasis Mean (RM72 cells; 50 mg/kg/day): 84.2; Tumor Mean (RM72 cells; 50 mg/kg/day): 74.4
O=C(c1ccc(OCCN2CCCCC2)cc1)c1c(-c2ccc(O)cc2)sc2cc(O)ccc12 [Raloxifene hydrochloride] | − (less than 1.5-fold) | 2.17 | 
Nc1nc(N)c2nc(-c3ccccc3)c(N)nc2n1 [Triamterene] | − (less than 1.5-fold) | 2.25 | 
CN(C)CCCN1c2ccccc2Sc2ccc(C(F)(F)F)cc21 [Triflupromazine hydrochloride] |  |  | Activity in Dox (Reck gene promoter [1]): − (key: +: more than 1.9-fold; ±: between 1.9 and 1.5-fold; −: less than 1.5-fold)
Meclocycline sulfosalicylate | − (less than 1.5-fold) | 2.59 | Optimal conc. (Reck gene promoter [2]): 0.0617 µM
Thimerosal |  |  | Activity in Dox (Reck gene promoter [1]): + (key: +: more than 1.9-fold; ±: between 1.9 and 1.5-fold; −: less than 1.5-fold); Induction (fold) (Reck gene promoter [1]): 9.33 fold; Optimal conc. (Reck gene promoter [1]): 5.00 µM
Trimeprazine tartrate | − (less than 1.5-fold) | 2.30 | Optimal conc. (Reck gene promoter [2]): 5.00 µM
